# Experimental data published in ChEMBL document CHEMBL1201862, “PubChem BioAssay data set” (2004).
# Active and inactive are the calls of the source.
# What was measured:
# [1] = test system: Danio rerio; test: In Vivo Angiogenesis Dose-Response Confirmation. [Related pubchem assays: 732 (Assay preceding this confirmatory assay.)]; assay type: functional, organism-based
# [2] = target: Genome polyprotein (Hepatitis C virus, UniProt Q2Q167); test: HCV core protein dimerization inhibitors, dose response, biochemical, TR-FRET (AID 2159); parameters: species or system Hepacivirus hominis;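 also: blocks dimerization of HCV core protein measured by TR-FRET between tagged core106 pairs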
# [3] = target: Luciferin 4-monooxygenase (Photinus pyralis, UniProt P08659); test: firefly luciferase enzyme inhibitors, dose response, biochemical, luminescence (AID 1891)
# [4] = Luminescence Cell-Based Dose Confirmation HTS to Identify Inhibitors of Platelet Dense Granule Release. [Related pubchem assays: 1663 (Primary HTS), 1678 (Summary of Project)]; assay type: functional
# [5] = Fluorescence Cell-Based Dose Response to Identify Inhibitors of Thrombin Receptor-Activating Peptide SFLLRN-Mediated P-Selectin Induction on Platelets. [Related pubchem assays: 1663 (Primary HTS), 1889 (retest at dose ), 1891 (counterscreen), 1678 (Project Summary)]; assay type: functional
# [6] = target: Diphosphomevalonate decarboxylase (Streptococcus pneumoniae serotype 2 (strain D39 / NCTC 7466), UniProt Q9FD53); test: S. pneumoniae DPM-DC inhibition retest, confirmation, biochemical, cuvette format, coupled NADH fluorescence (AID 1028); assay type: functional
# Chain of Diphosphomevalonate decarboxylase (Q9FD53 whole entry): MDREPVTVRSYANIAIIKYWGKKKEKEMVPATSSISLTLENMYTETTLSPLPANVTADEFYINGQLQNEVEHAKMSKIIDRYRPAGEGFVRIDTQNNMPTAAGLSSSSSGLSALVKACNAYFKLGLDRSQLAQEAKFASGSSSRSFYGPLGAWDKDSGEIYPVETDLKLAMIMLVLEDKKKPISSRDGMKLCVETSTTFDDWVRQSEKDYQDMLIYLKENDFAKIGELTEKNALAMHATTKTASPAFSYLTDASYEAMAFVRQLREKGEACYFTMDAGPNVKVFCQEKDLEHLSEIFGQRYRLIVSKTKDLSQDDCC
# Chain of Luciferin 4-monooxygenase (P08659 whole entry): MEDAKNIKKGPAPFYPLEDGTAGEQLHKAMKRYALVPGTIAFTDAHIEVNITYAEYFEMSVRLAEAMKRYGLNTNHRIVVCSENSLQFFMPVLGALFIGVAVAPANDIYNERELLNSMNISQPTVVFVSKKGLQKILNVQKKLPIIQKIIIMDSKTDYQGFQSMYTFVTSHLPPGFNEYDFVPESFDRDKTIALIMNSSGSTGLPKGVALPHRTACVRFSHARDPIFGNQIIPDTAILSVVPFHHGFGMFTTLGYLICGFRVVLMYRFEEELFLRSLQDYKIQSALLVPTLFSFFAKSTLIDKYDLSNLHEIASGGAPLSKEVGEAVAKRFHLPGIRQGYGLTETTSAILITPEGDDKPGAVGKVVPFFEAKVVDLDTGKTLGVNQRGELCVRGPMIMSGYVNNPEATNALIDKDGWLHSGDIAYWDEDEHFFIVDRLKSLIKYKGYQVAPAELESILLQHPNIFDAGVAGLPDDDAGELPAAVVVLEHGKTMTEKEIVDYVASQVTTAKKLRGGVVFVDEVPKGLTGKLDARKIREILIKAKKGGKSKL
# Chain of Genome polyprotein (Q2Q167 whole entry): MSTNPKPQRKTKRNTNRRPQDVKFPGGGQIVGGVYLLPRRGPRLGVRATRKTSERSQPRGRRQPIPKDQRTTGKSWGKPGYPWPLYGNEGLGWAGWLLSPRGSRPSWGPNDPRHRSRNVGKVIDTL
smiles,measurement,setting,value
O=C1Nc2ccc(F)cc2/C1=C1/Nc2ccccc2/C1=N\O,IC50,[1],0.38 µM (not active)
Cc1ccc(-c2nc(=S)c3c(n2Cc2ccco2)CC(C)(C)OC3)cc1,IC50,[2],> 49.8 µM (not active)
CCC(=O)Nc1cccc(NC(=O)c2ccccc2Cl)c1,EC50,[3],> 112 µM (not active)
same,EC50,[4],3.42 µM (active)
same,EC50,[5],< 30 µM (active)
O=C(c1ccc(-n2sc3ccccc3c2=O)cc1)N1CCCC1,IC50,[6],8.66 µM (active)
